According to article PMC7352759, “S(+)-(2E)-N-(2-Hydroxypropyl)-3-Phenylprop-2-Enamide (KM-568): A Novel Cinnamamide Derivative with Anticonvulsant Activity in Animal Models of Seizures and Epilepsy” (International Journal of Molecular Sciences, 2020):

Key:
[1] = tested on: rats; test: Subcutaneous metrazol seizure threshold test (scMET), rats; type: in vivo; settings: for ED50: Rattus norvegicus; for scMET Results (protected/tested animals): i.p.
Method: In vivo activity testing was performed at the Epilepsy Branch, National Institute of Neurological Disorders and Stroke, National Institutes of Health (NIH, Bethesda, USA) within the Anticonvulsant Screening Program (ASP) (currently known as the Epilepsy Therapy Screening Program (ETSP)). Pharmacological evaluation was planned and performed in accordance with the Institute of Laboratory Resources polices on the humane care of laboratory animals and approved by the University of Utah’s Institutional Animal Care and Use Committee (IACUC). All testing protocols were previously published as well as they are available on the NIH website. In the tests, albino mice Carworth Farms No.1 (CF-1) (Charles River), C57/Bl6 mice (Charles River), Frings mice (University of Utah) or male rats Sprague–Dawley (Charles River) were used. All animals were housed, fed, and handled in a manner consistent with the recommendations in the National Council Publication, ‘Guide for the Care and Use of Laboratory animals’ [51]. The tested compound was suspended in 0.5% methylcellulose.
The tested compound was administered i.p. or p.o. at certain dose. Then, subcutaneous injection of metrazol (syn. pentetrazol, pentylenepentetrazol) dissolved in 0.9% NaCl at the dose of 85 mg/kg (mice) or 70 mg/kg (rats) was performed to induce seizures. Protection was scored if there was not an observed episode of clonic spasm of at least 5 sec.

[2] = Neurotoxicity (TOX), behavioral tests, rats; type: in vivo; settings: rat, in vivo
Method: (§1) In mice, the neurological deficit was measured by the rotarod test in which a 1 inch diameter knurled plastic rod rotating at 6 rpm was used. Tests were performed at 0.25 h or 0.5 h of intraperitoneal or oral administration of the certain dose of the compounds KM-568. Each mouse was placed on the rod. If the animal was not able to remain on the rod for at least 1 min in each of three trials, the neurotoxicity was scored. In rats, the neurological deficit was measured in behavioral tests and scored when ataxia and loss of placing response and muscle tone were observed. Tests in rats were performed after 0.5 h of intraperitoneal administration or 1.0 h of oral administration of the certain dose of compound KM-568. TD50s were calculated by probit analysis.

[3] = tested on: rats; test: Neurotoxicity (TOX), behavioral tests, rats; type: in vivo
Method: as §1

[4] = tested on: Frings audiogenic seizure-susceptible mice; test: Frings audiogenic seizure-susceptible mouse model; type: in vivo; settings: 0.25 h; for Results (protected/tested animals): Frings mice, i.p.
Method: Frings audiogenic seizure-susceptible mice are genetically susceptible to sound-induced reflex seizures. Mice (18–25 g) were administered i.p. compound KM-568 at the doses in the range of 10.0–17.5 mg/kg. Fifteen minutes later, an individual mouse was placed in a round plexiglass jar (15 cm diameter, 18 cm high) and exposed to a sound stimulus of 110 decibels (11 kHz) delivered for 20 sec.

[5] = tested on: hippocampal kindled rats; test: Hippocampal kindled rat model; type: in vivo; settings: for Results (protected/tested animals) / Seizure Duration ± SEM / Seizure Score ± SEM (Racine scale): i.p.
Method: The electrodes were implanted in brains one week prior to experiments. Then, rats were stimulated with suprathreshold stimuli of 200 µA for 10 sec at 50 Hz every 30 min for 6 h on alternate days until fully kindled. One week after reaching the fully kindled state, the effect of 23 and 27 mg/kg, i.p. of KM-568 in the groups of 5–6 rats were evaluated. The tests were performed at different time points (0–2.25 h) after compound administration. The results were scored as behavioral seizure score (according to Racine scale) and after discharge duration. The protection was noted if the seizure score was 3 or less.

[6] = In vitro metabolism, mouse liver microsomes; type: in vitro ADME
Method: Stock solution of KM-568 was prepared in methanol. Mouse liver microsomes (Sigma–Aldrich, Darmstadt, Germany) were carefully thawed on ice before the experiment. A compound tested at concentration 20 μM was preincubated with mouse liver microsomes (0.4 mg/mL) in 100 mM potassium-phosphate buffer (pH 7.4) for 15 min at 37 °C. The biotransformation reaction was started with the addition of NADPH-regenerating system (NADP^+, glucose-6-phosphate, 0.7 U/mL glucose-6-phosphate dehydrogenase in 100 mM potassium-phosphate buffer) (Sigma–Aldrich, Darmstadt, Germany) and the mixture was incubated at 37 °C. Experiments were carried out 30 and 60 min at 37 °C, in duplicates. Negative control without NADPH-regenerating system was also conducted. Biotransformation was stopped by adding cooled 70% perchloric acid. Next, an internal standard (pentoxifylline) was added and samples were centrifuged at 9000 rpm for 10 min at 4 °C. The supernatant was analyzed by means of LC/MS. In vitro half time (t1/2) was established from the slope of the compound depletion curve. Intrinsic clearance (Clint) was obtained from the equation Clint = (volume of incubation [µl]/protein in the incubation [mg]) × 0.693/t1/2 [58, 59].

With C[C@H](O)CNC(=O)/C=C/c1ccccc1 [KM-568, S(+)-(2E)-N-(2-hydroxypropyl)-3-phenylprop-2-enamide] the ED50 ([1]; ip, 0.25 h, 95% confidence interval in parentheses) was 41.7 mg/kg, the ED50 ([1]; po, 1.0 h, doses 62.5, 125.0, 250.0 mg/kg) was over 250 mg/kg and the “scMET Results (protected/tested animals)” value ([1]; 30 mg/kg, 0.25 h) was 1/8. The “scMET Results (protected/tested animals)” value ([1]; 45 mg/kg, 0.25 h) was 4/8, the “scMET Results (protected/tested animals)” value ([1]; 60 mg/kg, 0.25 h) was 8/8 and the “scMET Results (protected/tested animals)” value ([1]; 95 mg/kg, 0.25 h) was 8/8. For the same compound, the TD50 at 0.5 h ([2]; ip, 0.5 h, 95% confidence interval in parentheses) was 95.2 mg/kg, the TD50 at 1 h ([2]; po, 1.0 h) was over 500 mg/kg and the “TOX Results (animals displaying neurotoxicity/animals used)” value ([3]; i.p., 60 mg/kg, 0.5 h) was 0/8. For the same compound, the “TOX Results (animals displaying neurotoxicity/animals used)” value ([3]; i.p., 80 mg/kg, 0.5 h) was 0/8, the “TOX Results (animals displaying neurotoxicity/animals used)” value ([3]; i.p., 100 mg/kg, 0.5 h) was 2/8 and the “TOX Results (animals displaying neurotoxicity/animals used)” value ([3]; i.p., 120 mg/kg, 0.5 h) was 5/8. For the same compound, the “TOX Results (animals displaying neurotoxicity/animals used)” value ([3]; i.p., 140 mg/kg, 0.5 h) was 7/8, the “TOX Results (animals displaying neurotoxicity/animals used)” value ([3]; p.o., 125.0 mg/kg, 1.0 h) was 0/2 and the “TOX Results (animals displaying neurotoxicity/animals used)” value ([3]; p.o., 250.0 mg/kg, 1.0 h) was 0/2. For the same compound, the “TOX Results (animals displaying neurotoxicity/animals used)” value ([3]; p.o., 500.0 mg/kg, 1.0 h) was 0/2, the “Results (protected/tested animals)” value ([4]; 10.0 mg/kg) was 1/8 and the “Results (protected/tested animals)” value ([4]; 12.5 mg/kg) was 3/8. The “Results (protected/tested animals)” value ([4]; 15.0 mg/kg) was 6/8, the “Results (protected/tested animals)” value ([4]; 17.5 mg/kg) was 7/8 and the ED50 ([4]; Mus musculus, ip) was 13.2 mg/kg. The ED50 ([5]; Rattus norvegicus, ip) was 24.2 mg/kg, the “Results (protected/tested animals)” value ([5]; 23 mg/kg, 15 min) was 2/6 and the “Seizure Duration ± SEM” value ([5]; 23 mg/kg, 15 min) was 55.67 ± 6.44 s. For the same compound, the “Seizure Score ± SEM (Racine scale)” value ([5]; 23 mg/kg, 15 min) was 3.67 ± 0.84, the “Seizure Duration ± SEM” value ([5]; 23 mg/kg, 45 min) was 65.83 ± 14.61 s and the “Seizure Score ± SEM (Racine scale)” value ([5]; 23 mg/kg, 45 min) was 5.0 ± 0.0. For the same compound, the “Seizure Duration ± SEM” value ([5]; 23 mg/kg, 75 min) was 56.67 ± 6.96 s, the “Seizure Score ± SEM (Racine scale)” value ([5]; 23 mg/kg, 75 min) was 5.0 ± 0.0 and the “Seizure Duration ± SEM” value ([5]; 23 mg/kg, 100 min) was 57.83 ± 9.27 s. For the same compound, the “Seizure Score ± SEM (Racine scale)” value ([5]; 23 mg/kg, 100 min) was 5.0 ± 0.0, the “Seizure Duration ± SEM” value ([5]; 23 mg/kg, 135 min) was 55.17 ± 9.48 s and the “Seizure Score ± SEM (Racine scale)” value ([5]; 23 mg/kg, 135 min) was 5.0 ± 0.0. The “Results (protected/tested animals)” value ([5]; 27 mg/kg, 15 min) was 4/5, the “Seizure Duration ± SEM” value ([5]; 27 mg/kg, 15 min) was 50.4 ± 3.08 s and the “Seizure Score ± SEM (Racine scale)” value ([5]; 27 mg/kg, 15 min) was 1.8 ± 0.97. For the same compound, the “Seizure Score ± SEM (Racine scale)” value ([5]; 27 mg/kg, 45 min) was 4.2 ± 0.80, the “Seizure Duration ± SEM” value ([5]; 27 mg/kg, 75 min) was 70.6 ± 27.57 s and the “Seizure Score ± SEM (Racine scale)” value ([5]; 27 mg/kg, 75 min) was 3.4 ± 0.98. The “Seizure Duration ± SEM” value ([5]; 27 mg/kg, 100 min) was 62.5 ± 10.71 s, the “Seizure Score ± SEM (Racine scale)” value ([5]; 27 mg/kg, 100 min) was 5.0 ± 0.0 and the “Seizure Duration ± SEM” value ([5]; 27 mg/kg, 135 min) was 95.0 ± 17.78 s. For the same compound, the “Seizure Score ± SEM (Racine scale)” value ([5]; 27 mg/kg, 135 min) was 5.0 ± 0.0, the compound remained unchanged ([6]; after 60 min of incubation with microsomes) was 72.37% and the metabolic stability qualification ([6]; mouse liver microsomes) was “moderate metabolically stable”. For the same compound, the half-life at 20 μM ([6]; pH 7.4, mouse liver microsomes, 20 μM, read-out: half-life time (t1/2)) was 128 min and the microsomal CLint at 20 μM ([6]; pH 7.4, mouse liver microsomes, 20 μM, read-out: internal clearance (Clint)) was 13.5 µL/min/mg.
